Literature values, collected in patent publication US20090215137A1, “METHODS FOR THE ECONOMICAL PRODUCTION OF BIOFUEL PRECURSOR THAT IS ALSO A BIOFUEL FROM BIOMASS” (GEVO, INC., priority 2007, published 2009).
≈ marks a conversion by molar mass, not a printed value. Where two headings read alike, the source gives them in different places.

What was measured:
[1] = octanol:water
Klyveromyces marxianus = conditions: in binary combination

SMILES: CCCCCCCCO [Biocatalyst 1-octanol, 1-octanol]
- Solubility in water (20° C., unless noted): 300 µg/mL (≈ 2300 µM)
- solubility limit (two-phase system (Chen, Q. 1995)): < 1100 µg/mL
- log P [1]: 3

SMILES: CCC(C)O (stereo not drawn) [Biocatalyst 2-butanol, 2-butanol]
- log P [1]: 0.6

SMILES: CC(C)O [Biocatalyst 2-propanol, 2-propanol]
- Solubility in water (20° C., unless noted) (in words): miscible

SMILES: COc1cc(C=O)ccc1O [Vanillin, vanillin]
- reduction in both cell growth and fermentation (Klyveromyces marxianus): 90%
